Test results taken from US20110053933A1, “HYDROXYQUINOXALINECARBOXAMIDE DERIVATIVE” (DAIICHI SANKYO COMPANY, LIMITED, priority 2008, published 2011).

Tested on: γ-glutamyl carboxylation reaction (human Gas6 in Gas6-HEK293 cells)
Experiment: Inhibitory action on γ-glutamyl carboxylation reaction (secreted γ-glutamyl carboxylated Gas6 by ELISA)
Format: cell-based
Conditions: vitamin K2 100 nM, exposure 18 to 20 hours, ELISA absorbance at 620 nm, read-out: IC50 (50% inhibitory concentration for the γ-glutamyl carboxylation reaction)
Procedure: Measurement of Inhibitory Action on γ-Glutamyl Carboxylation Reaction
Cells were used that expressed Gas6 excreted outside the cells when subjected to γ-glutamyl carboxylation, and inhibitory action on γ-glutamyl carboxylation reaction was assessed by measuring the secreted amount of extracellular Gas6 by ELISA method.
(A) Preparation for Assay Plate Containing Solid-Phase Anti-Human Gas6 Antibody
Goat anti-human Gas6 antibody (R&D Systems, Inc.) was diluted to 1 μg/ml with Dulbecco's phosphate-buffered saline, and 40 μl aliquots thereof were dispensed into each well of a 384-well microplate. After immobilizing the antibody to the solid phase by allowing it to stand at 4° C. overnight or at room temperature for 2 hours or more, each well was washed three times with wash buffer (10 mM Tris-HCl pH 7.4, 150 mM sodium chloride, 0.05% Tween20). After removing the supernatant, 80 μl aliquots of a 1% aqueous solution of Block Ace (Dainippon Sumitomo Pharma) were dispensed into each well and allowed to react at room temperature for 1 hour or more.
(B) Exposure of Test Compounds to Cells Stably Expressing Human Gas6
Cells that stably express human Gas6 (Gas6-HEK293), which were prepared by inserting human Gas6 gene (inserted between SalI and NotI within multiple cloning sites of pCIneo expression vector) into HEK293 cells, were grown and sub-cultured using Dulbecco's modified Eagle's medium (DMEM) containing 10% fetal calf serum (FCS). On the day before ELISA measurement, the Gas6-HEK293 cells were detached with trypsin-EDTA, dispersed in DMEM containing 10% FCS, and disseminated into each well of a 384-well, collagen type I-coated plate (Becton-Dickinson) in 30 μl aliquots containing 1.0×10^4 cells each, followed by culturing for 3 to 4 hours at 5% CO2 and 37° C. 30 μl aliquots of DMEM containing test compound solutions, prepared at various concentrations by dissolving in DMSO, and vitamin K2 at 0.1% and 100 nM, respectively (indicating final concentrations in both cases) were added to each well followed by additionally culturing for 18 to 20 hours.
(C) Quantification of γ-Glutamyl Carboxylated Gas6 by ELISA and Calculation of 50% Inhibitory Concentrations of γ-Glutamyl Carboxylation Reaction
After removing the 1% Block Ace aqueous solution from the preliminarily prepared assay plates containing solid phase anti-human Gas6 antibody, the culture supernatant of Gas6-HEK293 cells exposed to the test compounds was collected and 40 μl aliquots were dispensed into each well followed by allowing to react at room temperature for 2 hours (Step 1). The culture supernatant was removed and each well was washed three times with wash buffer. Thereafter, the same washing procedure was carried out between Steps 2 and 3 and Steps 3 and 4. Subsequently, 40 μl aliquots of mouse anti-human […] antibody (American Diagnostica inc.), adjusted to 0.5 μg/ml with immunoreaction buffer (100 mM Tris-HCl pH 7.4, 0.05% Tween20, 0.1% Block Ace), were dispensed into each well and allowed to react at room temperature for 1 hour (Step 2). Next, 40 μl aliquots of alkaline phosphatase-conjugated anti-mouse IgG antibody adjusted to 1.0 μg/ml with immunoreaction buffer were dispensed into each well and allowed to react at room temperature for 1 hour (Step 3). 40 μl aliquots of BluePhos Microwell (KPL) were dispensed into each well, and after incubating at room temperature for 10 minutes (Step 4), 20 μl aliquots of 5% EDTA were added to each well to stop the color development reaction, followed by measurement of absorbance at 620 nm (Step 5). […]

Row | SMILES | IC50 [nM]
1 | C[C@H](NC(=O)c1nc2ccccc2nc1O)C(=O)N1CCC(Oc2ccc(Cl)cc2)CC1 [Example 1, N-{(1S)-2-[4-(4-Chlorophenoxy)piperidin-1-yl]-1-methyl-2-oxoethyl}-3-hydroxyquinoxaline-2-carboxamide] | 8.4
2 | C[C@H](NC(=O)c1nc2ccccc2nc1O)C(=O)N1CCC(Oc2ccc(F)cc2)CC1 [Example 2, N-{(1S)-2-[4-(4-Fluorophenoxy)piperidin-1-yl]-1-methyl-2-oxoethyl}-3-hydroxyquinoxaline-2-carboxamide] | 6.6
3 | C[C@H](NC(=O)c1nc2ccccc2nc1O)C(=O)N1CCC(Oc2ccc(F)cc2F)CC1 [Example 3, N-{(1S)-2-[4-(2,4-Difluorophenoxy)piperidin-1-yl]-1-methyl-2-oxoethyl}-3-hydroxyquinoxaline-2-carboxamide] | 3.5
4 | C[C@H](NC(=O)c1nc2ccccc2nc1O)C(=O)N1CCC(Oc2ccc(OC(F)(F)F)cc2)CC1 [Example 4, 3-Hydroxy-N-[(1S)-1-methyl-2-oxo-2-{4-[4-(trifluoromethoxy)phenoxy]piperidin-1-yl}ethyl]quinoxaline-2-carboxamide] | 4.7
5 | C[C@H](NC(=O)c1nc2ccccc2nc1O)C(=O)N1CCC(Oc2ccc(F)cn2)CC1 [Example 6, N-[(1S)-2-{4-[(5-Fluoropyridin-2-yl)oxy]piperidin-1-yl}-1-methyl-2-oxoethyl]-3-hydroxyquinoxaline-2-carboxamide] | 74
6 | CC[C@H](NC(=O)c1nc2ccccc2nc1O)C(=O)N1CCC(Oc2ccc(F)cc2)CC1 [Example 8, N-[(1S)-1-{[4-(4-Fluorophenoxy)piperidin-1-yl]carbonyl}propyl]-3-hydroxyquinoxaline-2-carboxamide] | 1.8
7 | CC[C@H](NC(=O)c1nc2ccccc2nc1O)C(=O)N1CCC(Oc2ccc(F)cc2F)CC1 [Example 9, N-[(1S)-1-{[4-(2,4-Difluorophenoxy)piperidin-1-yl]carbonyl}propyl]-3-hydroxyquinoxaline-2-carboxamide] | < 0.6
8 | CC[C@H](NC(=O)c1nc2ccccc2nc1O)C(=O)N1CCC(Oc2ccc(OC(F)(F)F)cc2)CC1 [Example 10, 3-Hydroxy-N-[(1S)-1-({4-[4-(trifluoromethoxy)phenoxy]piperidin-1-yl}carbonyl)propyl]quinoxaline-2-carboxamide] | < 0.6
9 | CC[C@H](NC(=O)c1nc2ccccc2nc1O)C(=O)N1CCC(Oc2ccc(C#N)cc2)CC1 [Example 11, N-[(1S)-1-{[4-(4-Cyanophenoxy)piperidin-1-yl]carbonyl}propyl]-3-hydroxyquinoxaline-2-carboxamide] | 6.5
10 | CC[C@H](NC(=O)c1nc2ccccc2nc1O)C(=O)N1CCC(Oc2ccc(F)cn2)CC1 [Example 12, N-[(1S)-1-({4-[(5-Fluoropyridin-2-yl)oxy]piperidin-1-yl}carbonyl)propyl]-3-hydroxyquinoxaline-2-carboxamide] | 4.2
11 | O=C(N[C@H](C(=O)N1CCC(Oc2ccc(F)cc2)CC1)C1CC1)c1nc2ccccc2nc1O [Example 13, N-{(1S)-1-Cyclopropyl-2-[4-(4-fluorophenoxy)piperidin-1-yl]-2-oxoethyl}-3-hydroxyquinoxaline-2-carboxamide] | 5.8
12 | O=C(N[C@H](C(=O)N1CCC(Oc2ccc(F)cn2)CC1)C1CC1)c1nc2ccccc2nc1O [Example 14, N-[(1S)-1-Cyclopropyl-2-{4-[(5-fluoropyridin-2-yl)oxy]piperidin-1-yl}-2-oxoethyl]-3-hydroxyquinoxaline-2-carboxamide] | 25
13 | CC(C)[C@H](NC(=O)c1nc2ccccc2nc1O)C(=O)N1CCC(Oc2ccc(Cl)cc2)CC1 [Example 15, N-[(1S)-1-{[4-(4-Chlorophenoxy)piperidin-1-yl]carbonyl}-2-methylpropyl]-3-hydroxyquinoxaline-2-carboxamide] | 18
14 | CC(C)[C@H](NC(=O)c1nc2ccccc2nc1O)C(=O)N1CCC(Oc2ccc(F)cc2)CC1 [Example 16, N-[(1S)-1-{[4-(4-Fluorophenoxy)piperidin-1-yl]carbonyl}-2-methylpropyl]-3-hydroxyquinoxaline-2-carboxamide] | 7
15 | CC(C)[C@H](NC(=O)c1nc2ccccc2nc1O)C(=O)N1CCC(Oc2ccc(OC(F)(F)F)cc2)CC1 [Example 18, 3-Hydroxy-N-[(1S)-2-methyl-1-({4-[4-(trifluoromethoxy)phenoxy]piperidin-1-yl}carbonyl)propyl]quinoxaline-2-carboxamide] | 2.9
16 | CC(C)[C@H](NC(=O)c1nc2ccccc2nc1O)C(=O)N1CCC(Oc2ccc(C#N)cc2)CC1 [Example 19, N-[(1S)-1-{[4-(4-Cyanophenoxy)piperidin-1-yl]carbonyl}-2-methylpropyl]-3-hydroxyquinoxaline-2-carboxamide] | 4.7
17 | CC(C)[C@H](NC(=O)c1nc2ccccc2nc1O)C(=O)N1CCC(Oc2ccc(F)cc2Br)CC1 [Example 21, N-[(1S)-1-{[4-(2-Bromo-4-fluorophenoxy)piperidin-1-yl]carbonyl}-2-methylpropyl]-3-hydroxyquinoxaline-2-carboxamide] | 0.89
18 | CC(C)[C@H](NC(=O)c1nc2ccccc2nc1O)C(=O)N1CCC(Oc2ccc(F)cc2F)CC1 [Example 23, N-[(1S)-1-{[4-(2,4-Difluorophenoxy)piperidin-1-yl]carbonyl}-2-methylpropyl]-3-hydroxyquinoxaline-2-carboxamide] | < 0.6
19 | CC(C)[C@H](NC(=O)c1nc2ccccc2nc1O)C(=O)N1CCC(Oc2ccc(Cl)cn2)CC1 [Example 29, N-[(1S)-1-({4-[(5-Chloropyridin-2-yl)oxy]piperidin-1-yl}carbonyl)-2-methylpropyl]-3-hydroxyquinoxaline-2-carboxamide] | 7.2
20 | CC(C)[C@H](NC(=O)c1nc2ccccc2nc1O)C(=O)N1CCC(N(C)c2ccc(F)cc2)CC1 [Example 30, N-[(1S)-1-({4-[(4-Fluorophenyl)(methyl)amino]piperidin-1-yl}carbonyl)-2-methylpropyl]-3-hydroxyquinoxaline-2-carboxamide] | 1.7
21 | CC(C)[C@H](NC(=O)c1nc2ccccc2nc1O)C(=O)N1CCC(Nc2ccc(F)cn2)CC1 [Example 34, N-[(1S)-1-({4-[(5-Fluoropyridin-2-yl)amino]piperidin-1-yl}carbonyl)-2-methylpropyl]-3-hydroxyquinoxaline-2-carboxamide] | 12
22 | CC(C)[C@H](NC(=O)c1nc2ccccc2nc1O)C(=O)N1CCC(N(C)c2ccc(F)cn2)CC1 [Example 35, N-[(1S)-1-({4-[(5-Fluoropyridin-2-yl)(methyl)amino]piperidin-1-yl}carbonyl)-2-methylpropyl]-3-hydroxyquinoxaline-2-carboxamide] | < 0.6
23 | CC(C)[C@H](NC(=O)c1nc2ccccc2nc1O)C(=O)N1CCC(Oc2ccc(C(F)(F)F)cn2)CC1 [Example 36, 3-Hydroxy-N-{(1S)-2-methyl-1-[(4-{[5-(trifluoromethyl)pyridin-2-yl]oxy}piperidin-1-yl)carbonyl]propyl}quinoxaline-2-carboxamide] | 1.8
24 | CC(C)[C@H](NC(=O)c1nc2ccccc2nc1O)C(=O)N1CCC(Oc2ccc(F)cn2)CC1 [Example 37, N-[(1S)-1-({4-[(5-Fluoropyridin-2-yl)oxy]piperidin-1-yl}carbonyl)-2-methylpropyl]-3-hydroxyquinoxaline-2-carboxamide] | 5.4
25 | CC(C)[C@H](NC(=O)c1nc2ccccc2nc1O)C(=O)N1CCC(Sc2ccc(F)cc2)CC1 [Example 45, N-[(1S)-1-({4-[(4-Fluorophenyl)thio]piperidin-1-yl}carbonyl)-2-methylpropyl]-3-hydroxyquinoxaline-2-carboxamide] | 1.3
